This note sets out measurements from US8455475B2 (Gruenenthal GmbH, priority 2009, dated 2013).

Structures are written as SMILES.

One assay concerns the target T1, rat B1R (bradykinin receptor 1) (Rattus norvegicus, UniProt P97583).
T1 construct: expressed in transfected cells; host or cells: CHO K1 cells
T1 sequence (P97583 1-337): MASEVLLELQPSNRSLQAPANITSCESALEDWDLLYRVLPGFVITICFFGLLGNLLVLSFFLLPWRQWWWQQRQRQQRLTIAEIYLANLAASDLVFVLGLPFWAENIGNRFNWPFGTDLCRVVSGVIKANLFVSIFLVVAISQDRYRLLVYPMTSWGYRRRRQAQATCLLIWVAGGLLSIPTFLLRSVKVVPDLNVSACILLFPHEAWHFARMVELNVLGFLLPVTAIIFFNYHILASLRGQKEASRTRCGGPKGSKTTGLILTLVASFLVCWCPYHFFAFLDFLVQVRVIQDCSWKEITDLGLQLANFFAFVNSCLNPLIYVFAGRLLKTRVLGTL
The assay is described as follows: FLIPR Ca2+ assay (Fluo-4) on CHO K1 cells stably transfected with the B1R gene of the rat (rB1R cells): % inhibition at 10 μM / IC50, agonist Des-Arg9-bradykinin. It counts as cell-based. The note with it: CHO-K1, rat B1R. The procedure, abridged:
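Stably transfected CHO K1 cells loaded with Fluo-4 and read on FLIPR (λex 488, λem 540 nm; peak fluorescence). Test substance (10 μM) added first, then after 10–20 min the agonist at EC80; % inhibition versus maximum achievable inhibition. IC50 from several concentrations, n=2–3, N≥2.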
As to `N#Cc1cccc(CN2CCC3(CC2)CCN(C(=O)c2ccc4c(c2)C(NC(=O)c2cc(Cl)ccc2F)CC4)C3)c1` (stereo not shown) [IND_CC-651, 5-Chloro-N-[6-[8-[(3-cyano-phenyl)-methyl]-2,8-diazaspiro[4.5]decane-2-carbonyl]-2,3-dihydro-1H-inden-1-yl]-2-fluoro-benzamide], the inhibition at 10 µM stood at 76%.
Same read-out and setting: then `O=C(NC1CCc2ccc(C(=O)N3CCC4(CCN(Cc5ccccn5)CC4)CC3)cc21)c1ccccc1Cl` (stereo not shown) [IND_CC-509, 2-Chloro-N-[6-[9-(pyridin-2-yl-methyl)-3,9-diazaspiro[5.5]undecane-3-carbonyl]-2,3-dihydro-1H-inden-1-yl]-benzamide], with 101%; and `O=C(NC1CCc2ccc(C(=O)N3CCC4(CCN(C(=O)c5ccc(F)cc5F)CC4)C3)cc21)c1ccccc1Cl` (stereo not shown) [IND_CC-576, 2-Chloro-N-[6-[8-(2,4-difluoro-benzoyl)-2,8-diazaspiro[4.5]decane-2-carbonyl]-2,3-dihydro-1H-inden-1-yl]-benzamide], with 79%; and `Cc1cc(C(=O)N2CCC3(CCN(C(=O)c4ccc5c(c4)C(NC(=O)c4sccc4Cl)CC5)C3)CC2)n(C(C)(C)C)n1` (stereo not shown) [IND_CC-588, N-[6-[8-(2-tert-Butyl-5-methyl-2H-pyrazole-3-carbonyl)-2,8-diazaspiro[4.5]-decane-2-carbonyl]-2,3-dihydro-1H-inden-1-yl]-3-chloro-thiophene-2-carboxylic acid amide], with 61%.
On the same count and under the same terms, the figure for `CCn1cc(CN2CCC3(CC2)CCN(C(=O)c2ccc4c(c2)C(NC(=O)c2ccccc2Cl)CC4)C3)c(C)n1` (stereo not shown) [IND_CC-565, 2-Chloro-N-[6-[8-[(1-ethyl-3-methyl-1H-pyrazol-4-yl)-methyl]-2,8-diazaspiro[4.5]decane-2-carbonyl]-2,3-dihydro-1H-inden-1-yl]-benzamide] is 68%; for `CN(C1CCc2ccc(C(=O)N3CCC4(CC3)CCN(c3ccncc3)CC4)cc21)S(=O)(=O)c1c(Cl)cc(C(F)(F)F)cc1Cl` (stereo not shown) [IND_CC-403, 2,6-Dichloro-N-methyl-N-[6-(9-pyridin-4-yl-3,9-diazaspiro[5.5]undecane-3-carbonyl)-2,3-dihydro-1H-inden-1-yl]-4-(trifluoromethyl)-benzenesulfonic acid amide] it is 97%; for `COc1ccc(CN2CCC3(CC2)CCN(C(=O)c2ccc4c(c2)C(NC(=O)c2cc(C(F)(F)F)ccc2Cl)CC4)C3)cc1F` (stereo not shown) [IND_CC-636, 2-Chloro-N-[6-[8-[(3-fluoro-4-methoxy-phenyl)-methyl]-2,8-diazaspiro[4.5]-decane-2-carbonyl]-2,3-dihydro-1H-inden-1-yl]-5-(trifluoromethyl)-benzamide] it is 79%.
`O=C(NC1CCc2ccc(C(=O)N3CCC4(CCN(C(=O)c5ccc(F)cc5Cl)CC4)C3)cc21)c1sccc1Cl` (stereo not shown) [IND_CC-584, 3-Chloro-N-[6-[8-(2-chloro-4-fluoro-benzoyl)-2,8-diazaspiro[4.5]decane-2-carbonyl]-2,3-dihydro-1H-inden-1-yl]-thiophene-2-carboxylic acid amide]: the inhibition at 10 µM was found to be 63%.
On the same count and under the same terms, then `O=C(c1ccc2c(c1)C(NS(=O)(=O)Cc1ccccc1F)CC2)N1CCC2(CCN(c3ccncc3)CC2)C1` (stereo not shown) [IND_CC-359, 1-(2-Fluorophenyl)-N-[6-(8-pyridin-4-yl-2,8-diazaspiro[4.5]decane-2-carbonyl)-2,3-dihydro-1H-inden-1-yl]-methanesulfonic acid amide], with 104%.
Same read-out and setting: then `CC(C)(C)CC(=O)NC1CCc2ccc(C(=O)N3CCC4(CC3)CCN(c3ccncc3)C4)cc21` (stereo not shown) [IND_CC-373, 3,3-Dimethyl-N-[6-(2-pyridin-4-yl-2,8-diazaspiro[4.5]decane-8-carbonyl)-2,3-dihydro-1H-inden-1-yl]-butyramide], with 102%; and `O=C(NC1CCc2ccc(C(=O)N3CCC4(CCN(C(=O)Nc5ccc(F)cc5F)CC4)CC3)cc21)c1ccccc1Cl` (stereo not shown) [IND_CC-711, 3-[3-[(2-Chloro-benzoyl)amino]-2,3-dihydro-1H-indene-5-carbonyl]-N-(2,4-difluoro-phenyl)-3,9-diazaspiro[5.5]undecane-9-carboxylic acid amide], with 94%; and `O=C(NC1CCc2ccc(C(=O)N3CCC4(CC3)CCN(c3ccncc3)CC4)cc21)C1CCCC1` (stereo not shown) [IND_CC-391, N-[6-(9-Pyridin-4-yl-3,9-diazaspiro[5.5]undecane-3-carbonyl)-2,3-dihydro-1H-inden-1-yl]-cyclopentanecarboxylic acid amide], with 103%.
Same read-out and setting: then `Cc1cccc(Cl)c1S(=O)(=O)NC1CCc2ccc(C(=O)N3CCC4(CC3)CCN(c3ccc(C(F)(F)F)cc3)CC4)cc21` (stereo not shown) [IND_CC-239, 2-Chloro-6-methyl-N-[6-[9-[4-(trifluoromethyl)-phenyl]-3,9-diazaspiro[5.5]-undecane-3-carbonyl]-2,3-dihydro-1H-inden-1-yl]-benzenesulfonic acid amide], with 71%; and `N#Cc1ccc(CN2CCC3(CC2)CCN(C(=O)c2ccc4c(c2)C(NC(=O)c2cc(Cl)ccc2F)CC4)CC3)cc1` (stereo not shown) [IND_CC-653, 5-Chloro-N-[6-[9-[(4-cyano-phenyl)-methyl]-3,9-diazaspiro[5.5]undecane-3-carbonyl]-2,3-dihydro-1H-inden-1-yl]-2-fluoro-benzamide], with 64%; and `O=C(NC1CCc2ccc(C(=O)N3CCC4(CCN(C(=O)NCc5ccccc5)CC4)CC3)cc21)c1ccccc1Cl` (stereo not shown) [IND_CC-706, N-Benzyl-3-[3-[(2-chloro-benzoyl)amino]-2,3-dihydro-1H-indene-5-carbonyl]-3,9-diazaspiro[5.5]undecane-9-carboxylic acid amide], with 103%.
On to `CCn1cc(CN2CCC3(CC2)CCN(C(=O)c2ccc4c(c2)C(NC(=O)c2cc(C(F)(F)F)ccc2Cl)CC4)CC3)c(C)n1` (stereo not shown) [IND_CC-693, 2-Chloro-N-[6-[9-[(1-ethyl-3-methyl-1H-pyrazol-4-yl)-methyl]-3,9-diazaspiro[5.5]-undecane-3-carbonyl]-2,3-dihydro-1H-inden-1-yl]-5-(trifluoromethyl)-benzamide], for which the inhibition at 10 µM came to 68%.
Still for that read-out and setting: the figure for `O=C(NC1CCc2ccc(C(=O)N3CCC4(CCN(Cc5ccc(F)cc5F)CC4)CC3)cc21)c1c(F)cccc1Cl` (stereo not shown) [IND_CC-791, 2-Chloro-N-[6-[9-[(2,4-difluoro-phenyl)-methyl]-3,9-diazaspiro[5.5]undecane-3-carbonyl]-2,3-dihydro-1H-inden-1-yl]-6-fluoro-benzamide] is 91%; for `CN(C1CCc2ccc(C(=O)N3CCC4(CC3)CCN(c3ccncc3)CC4)cc21)S(=O)(=O)c1cc(Cl)ccc1Cl` (stereo not shown) [IND_CC-344, 2,5-Dichloro-N-methyl-N-[6-(9-pyridin-4-yl-3,9-diazaspiro[5.5]undecane-3-carbonyl)-2,3-dihydro-1H-inden-1-yl]-benzenesulfonic acid amide] it is 99%; for `COc1cc(C)c(C(=O)NC2CCc3ccc(C(=O)N4CCC5(CCN(C(=O)c6cc(C(C)(C)C)nn6C)CC5)C4)cc32)c(C)c1` (stereo not shown) [IND_CC-580, N-[6-[8-(5-tert-Butyl-2-methyl-2H-pyrazole-3-carbonyl)-2,8-diazaspiro[4.5]decane-2-carbonyl]-2,3-dihydro-1H-inden-1-yl]-4-methoxy-2,6-dimethyl-benzamide] it is 81%.
On to `CCC(CC)C(=O)NC1CCc2ccc(C(=O)N3CCC4(CCN(c5ccncc5)CC4)C3)cc21` (stereo not shown) [IND_CC-420, 2-Ethyl-N-[6-(8-pyridin-4-yl-2,8-diazaspiro[4.5]decane-2-carbonyl)-2,3-dihydro-1H-inden-1-yl]-butyramide], for which the inhibition at 10 µM was 100%.
Turning to `Cn1cncc1CN1CCC2(CC1)CCN(C(=O)c1ccc3c(c1)C(N(C(=O)c1ccccc1Cl)C1CC1)CC3)C2` (stereo not shown) [IND_CC-536, 2-Chloro-N-cyclopropyl-N-[6-[8-[(3-methyl-3H-imidazol-4-yl)-methyl]-2,8-diazaspiro[4.5]decane-2-carbonyl]-2,3-dihydro-1H-inden-1-yl]-benzamide], the inhibition at 10 µM is 54%.
Still for that read-out and setting: then `Cc1cc(OC(F)(F)F)ccc1C(=O)NC1CCc2ccc(C(=O)N3CCC4(CC3)CCN(c3ccncc3)CC4)cc21` (stereo not shown) [IND_CC-300, 2-Methyl-N-[6-(9-pyridin-4-yl-3,9-diazaspiro[5.5]undecane-3-carbonyl)-2,3-dihydro-1H-inden-1-yl]-4-(trifluoromethyloxy)-benzamide], with 65%; and `CN(C)c1ncc(CN2CCC3(CC2)CCN(C(=O)c2ccc4c(c2)C(NC(=O)c2cccc(Cl)c2Cl)CC4)CC3)cn1` (stereo not shown) [IND_CC-753, 2,3-Dichloro-N-[6-[9-[(2-dimethylamino-pyrimidin-5-yl)-methyl]-3,9-diazaspiro[5.5]undecane-3-carbonyl]-2,3-dihydro-1H-inden-1-yl]-benzamide], with 90%.
On to `CC(C)CN1CCC2(CC1)CCN(C(=O)c1ccc3c(c1)C(NC(=O)c1cc(C(F)(F)F)ccc1Cl)CC3)CC2` (stereo not shown) [IND_CC-698, 2-Chloro-N-[6-[9-(2-methyl-propyl)-3,9-diazaspiro[5.5]undecane-3-carbonyl]-2,3-dihydro-1H-inden-1-yl]-5-(trifluoromethyl)-benzamide], for which the inhibition at 10 µM was determined as 90%.

The assay is the same for the next values; noted with them: rat B1R, 10 µM.
As for `O=C(NC1CCc2ccc(C(=O)N3CCC4(CCN(Cc5ccncc5)CC4)CC3)cc21)c1ccccc1Cl` (stereo not shown) [IND_CC-510, 2-Chloro-N-[6-[9-(pyridin-4-yl-methyl)-3,9-diazaspiro[5.5]undecane-3-carbonyl]-2,3-dihydro-1H-inden-1-yl]-benzamide], the “% Inhibition (rat B1R) at 10 μM” value is recorded as 95%.
